Experimental data: patent US8158560B2, “Insecticidal arylpyrroline compounds” (Bayer CropScience AG, priority 2009, dated 2012)

Assays:
Assay type in all cases: in vivo
Spodoptera litura = assay: Biological Test Example 1: test against tobacco cutworm (Spodoptera litura) larvae, sweet potato leaf dip; details: foliar, 168 h, active compound concentration 100 ppm, third instar larvae, after 7 days, read-out: insecticidal activity
Description: (§1) Unless not mentioned otherwise, the test solutions were prepared as follows:
(§2) Containing as solvent: Dimethylformamide, 3 parts by weight; and as emulsifier: Polyoxyethylene alkyl phenyl ether, 1 part by weight
(§3) To prepare the test solution, 1 part by weight of an active compound is mixed with the above-mentioned amount of solvent containing the above-mentioned amount of emulsifier, and the mixture is diluted with water to the desired concentration.
Test Against Tobacco Cutworm (Spodoptera litura) Larvae
Leaves of sweet potato were immersed in the test solution at the appropriate concentration, and the leaves were dried in air. The leaves were then placed in a petri dish having a diameter of 9 cm, and ten Spodoptera litura at third instar larvae were released therein. The petri dishes were placed in a temperature-controlled chamber at 25° C.
After 2 days and 4 days more sweet potato leaves were added. After 7 days, the number of dead larvae was counted and the insecticidal activity was calculated. An insecticidal activity of 100% means that all larvae were killed, whereas an insecticidal activity of 0% means that no larva was killed. In the current test, the results of two petri dishes for each treatment were averaged.

Aulacophora femoralis = assay: Biological Test Example 3: test against cucurbit leaf beetle (Aulacophora femoralis), cucumber leaf dip; details: foliar, 168 h, active compound concentration 100 ppm, second instar larvae, after 7 days, read-out: insecticidal activity
Description: as §1, §2, §3
Test Against Cucurbit Leaf Beetle (Aulacophora femoralis)
Leaves of cucumber were immersed in the test solution at the appropriate concentration, and the leaves were dried in air. The leaves were then put in a plastic cup containing sterilized black soil and five Aulacophora femoralis at second instar larvae were released in the cup. The cups were placed in a temperature-controlled chamber at 25° C. After 7 days, the number of dead larvae was counted, and the insecticidal activity was calculated. An insecticidal activity of 100% means that all larvae were killed, whereas an insecticidal activity of 0% means that no larva was killed.

[1] = test system: organic phosphorus agent- and carbamate agent-resistant Myzus persicae; assay: Biological Test Example 4: test against organic phosphorus agent- and carbamate agent-resistant green peach aphid (Myzus persicae), spray on eggplant; details: active compound concentration 100 ppm; after 7 days
Description: as §1, §2, §3
Test Against Organic Phosphorus Agent- and Carbamate Agent Resistant Green Peach Aphid (Myzus persicae)
50 to 100 head of organic phosphorous agent- and carbamate agent-resistant Myzus persicae were inoculated to leaves of eggplant at two-leaf stage, planted in a pot of 6 cm in diameter. After one day, test solution at the appropriate concentration was sprayed thereon in a sufficient amount using a spray gun. After the spraying, the plant pot was placed inside a greenhouse, and after 7 days, the insecticidal rate was calculated.
An insecticidal activity of 100% means that all aphids were killed, whereas an insecticidal activity of 0% means that no aphid was killed.

Tetranychus urticae = assay: Biological Test Example 2: test against two-spotted spider mite (Tetranychus urticae), spray on kidney bean; details: 168 h, active compound concentration 100 ppm, adult mites, after 7 days, read-out: acaricidal activity
Description: as §1, §2, §3
Test Against Two-Spotted Spider Mite (Tetranvchus urticae)
50 to 100 adult mites of Tetranychus urticae were inoculated to leaves of kidney bean at two-leaf stage planted in a pot of 6 cm in diameter. After one day, test solution at the appropriate concentration was sprayed thereon in a sufficient amount using a spray gun. After the spraying, the plant pot was placed inside a greenhouse, and after 7 days, the acaricidal activity was calculated. An acaricidal activity of 100% means that all mites were killed, whereas an acaricidal activity of 0% means that no mite was killed.

[2] = test system: Spodoptera litura L2 stage; assay: Spodoptera litura root soaking test (PRODLI); details: 20 ppm, 4 dat
Description: Spodoptera litura—Root Soaking Test (PRODLI)
Insect: Spodoptera litura L2 stage;
Material: Culture media bottles for hydroponics: Plastic (A-PET) cups for test, square type;
Plant: Broccoli 5 leaf stage (ca. 12 cm high), soil around the roots was washed off just before the test;
Solvent pre-mixture “Sorpol SD” for root soaking test;
Sorpol SD: Sorpol BDB:Dimethylformamide=3:3:140
Procedure: Test solutions are prepared in the bottles at the appropriate concentration. The test plant root is dipped into the test solution in the bottle and kept in a test room. After 3 days, ⅓ part of the leaves of the plants is cut and put into the A-PET cup.
Into each test cup five larvae L2 are released, the cup is covered with a lid and stored at 25° C. and at a relative humidity of 50-60% and under 16L8D lighting conditions.
After the specified period of time the mortality in % is determined and the rate of death is calculated.

Structure (SMILES)	pest or weed control at 100 ppm (Spodoptera litura) [%]	pest or weed control at 100 ppm (Aulacophora femoralis) [%]	insecticidal activity [1] [%]	pest or weed control at 100 ppm (Tetranychus urticae) [%]	Efficacy/day(s) of treatment [2] [%/4 dat]
O=C(NC1CSC1)c1ccc(C2=NCC(c3cc(Cl)c(Cl)c(Cl)c3)(C(F)(F)F)C2)cc1Br (centres unmarked) [Compound 1-4, 2-Bromo-N-(thietan-3-yl)-4-[3-(3,4,5-trichlorophenyl)-3-(trifluoromethyl)-3,4-dihydro-2H-pyrrol-5-yl]benzamide]	100	100	–	–	–
O=C(NC1CSC1)c1ccc(C2=NCC(c3cc(Cl)c(Cl)c(Cl)c3)(C(F)(F)F)C2)cc1C(F)(F)F (centres unmarked) [Compound 1-7, N-(thietan-3-yl)-4-[3-(3,4,5-trichlorophenyl)-3-(trifluoromethyl)-3,4-dihydro-2H-pyrrol-5-yl]-2-(trifluoromethyl)benzamide]	100	100	100	100	–
O=C(NC1C[S+]([O-])C1)c1ccc(C2=NCC(c3cc(Cl)c(Cl)c(Cl)c3)(C(F)(F)F)C2)cc1C(F)(F)F (centres unmarked) [Compound 1-8, N-(1-Oxidothietan-3-yl)-4-[3-(3,4,5-trichlorophenyl)-3-(trifluoromethyl)-3,4-dihydro-2H-pyrrol-5-yl]-2-(trifluoromethyl)benzamide]	100	100	–	100	–
O=C(NC1CS(=O)(=O)C1)c1ccc(C2=NCC(c3cc(Cl)c(Cl)c(Cl)c3)(C(F)(F)F)C2)cc1C(F)(F)F (centres unmarked) [Compound 1-9, N-(1,1-Dioxidothietan-3-yl)-4-[3-(3,4,5-trichlorophenyl)-3-(trifluoromethyl)-3,4-dihydro-2H-pyrrol-5-yl]-2-(trifluoromethyl)benzamide]	100	100	100	100	–
Cc1cc(C2=NCC(c3cc(Cl)c(Cl)c(Cl)c3)(C(F)(F)F)C2)ccc1C(=O)NC1CSC1 (centres unmarked) [Compound 1-10, 2-methyl-N-(thietan-3-yl)-4-[3-(3,4,5-trichlorophenyl)-3-(trifluoromethyl)-3,4-dihydro-2H-pyrrol-5-yl]benzamide]	100	100	100	100	–
Cc1cc(C2=NCC(c3cc(Cl)c(Cl)c(Cl)c3)(C(F)(F)F)C2)ccc1C(=O)NC1C[S+]([O-])C1 (centres unmarked) [Compound 1-11, 2-Methyl-N-(1-oxidothietan-3-yl)-4-[3-(3,4,5-trichlorophenyl)-3-(trifluoromethyl)-3,4-dihydro-2H-pyrrol-5-yl]benzamide]	100	100	–	100	–
Cc1cc(C2=NCC(c3cc(Cl)c(Cl)c(Cl)c3)(C(F)(F)F)C2)ccc1C(=O)NC1CS(=O)(=O)C1 (centres unmarked) [Compound 1-12, N-(1,1-Dioxidothietan-3-yl)-2-methyl-4-[3-(3,4,5-trichlorophenyl)-3-(trifluoromethyl)-3,4-dihydro-2H-pyrrol-5-yl]benzamide]	100	100	100	100	–
O=C(NC1CSC1)c1ccc(C2=NCC(c3cc(C(F)(F)F)cc(C(F)(F)F)c3)(C(F)(F)F)C2)cc1C(F)(F)F (centres unmarked) [Compound 1-16, 4-{3-[3,5-Bis(trifluoromethyl)phenyl}-3-(trifluoromethyl)-3,4-dihydro-2H-pyrrol-5-yl]-N-(thietan-3-yl)-2-(trifluoromethyl)benzamide]	100	100	100	100	–
Cc1cc(C2=NCC(c3cc(C(F)(F)F)cc(C(F)(F)F)c3)(C(F)(F)F)C2)ccc1C(=O)NC1CSC1 (centres unmarked) [Compound 1-19, 4-{3-[3,5-Bis(trifluoromethyl)phenyl]-3-(trifluoromethyl)-3,4-dihydro-2H-pyrrol-5-yl}-2-methyl-N-(thietan-3-yl)benzamide]	100	100	100	100	–
Cc1cc(C2=NCC(c3cc(C(F)(F)F)cc(C(F)(F)F)c3)(C(F)(F)F)C2)ccc1C(=O)NC1C[S+]([O-])C1 (centres unmarked) [Compound 1-20, 4-{3-[3,5-Bis(trifluoromethyl)phenyl]-3-(trifluoromethyl)-3,4-dihydro-2H-pyrrol-5-yl}-2-methyl-N-(1-oxidothietan-3-yl)benzamide]	100	100	–	100	–
O=C(NC1CSC1)c1ccc(C2=NCC(c3cc(C(F)(F)F)cc(C(F)(F)F)c3)(C(F)(F)F)C2)cc1Br (centres unmarked) [Compound 1-104, 4-{3-[3,5-Bis(trifluoromethyl)phenyl]-3-(trifluoromethyl)-3,4-dihydro-2H-pyrrol-5-yl}-2-bromo-N-(thietan-3-yl) benzamide]	100	100	–	–	–
O=C(CNC(=O)c1ccc(C2=NCC(c3cc(Cl)c(Cl)c(Cl)c3)(C(F)(F)F)C2)cc1C(F)(F)F)NC1CSC1 (centres unmarked) [Compound 3-7]	100	100	–	100	–
O=C(CNC(=O)c1ccc(C2=NCC(c3cc(C(F)(F)F)cc(C(F)(F)F)c3)(C(F)(F)F)C2)cc1C(F)(F)F)NC1CSC1 (centres unmarked) [Compound 3-19, 4-{3-[3,5-Bis(trifluoromethyl)phenyl]-3-(trifluoromethyl)-3,4-dihydro-2H-pyrrol-5-yl}-N-[2-oxo-2-(thietan-3-ylamino)ethyl]-2-(trifluoromethyl)benzamide]	100	100	–	–	–
Cc1cc(C2=NCC(c3cc(Cl)cc(Cl)c3)(C(F)(F)F)C2)ccc1C(=O)NC1CS(=O)(=O)C1 (centres unmarked) [Compound T-1]	–	–	–	–	100
Cc1cc(C2=NOC(c3cc(Cl)cc(Cl)c3)(C(F)(F)F)C2)ccc1C(=O)NC1CS(=O)(=O)C1 (centres unmarked) [ExNo A10 of WO 2009/080250]	–	–	–	–	0
